Measurements as given in US9573956B2, “Compounds as dual inhibitors of phosphodiesterases and histone deacetylases” (FUNDACIÓN PARA LA INVESTIGACIÓN MÉDICA APLICADA, priority 2013, dated 2017).
Like-named read-outs stand apart in the source and are kept apart here.

Assays:
Format in all cases: biochemical
PDE9A isoform b = biological target: T1, PDE9A isoform b (Homo sapiens, UniProt O76083); assay: PDE enzyme activity assay (HTRF cGMP), PDE9A; details: recombinant enzyme; read-out: PDE9A inhibition (IC50)
T1 construct: they are full-length with N-terminal GST tag; GST (N); purchased BPS Biosciences 60090; host or cells: baculovirus infected Sf9 cells

HDAC1 = HDAC1 (Homo sapiens, UniProt Q13547); assay: HDAC enzyme activity assay (fluorogenic substrate), HDAC1
PDE5A = biological target: T2, PDE5A (Homo sapiens, UniProt O76074); assay: PDE enzyme activity assay (HTRF cGMP), PDE5A
T2 construct: they are full-length with N-terminal GST tag; GST (N); purchased BPS Biosciences 60050; host or cells: baculovirus infected Sf9 cells

HDAC6 = biological target: T3, HDAC6 (Homo sapiens, UniProt Q9UBN7); assay: HDAC enzyme activity assay (fluorogenic substrate), HDAC6
T3 construct: BC069243; Cat. #50006) is full-length with N-terminal GST tag; GST (N); purchased BPS Biosciences 50006; host or cells: baculovirus infected Sf9 cells
T3 sequence (Q9UBN7 1-1215): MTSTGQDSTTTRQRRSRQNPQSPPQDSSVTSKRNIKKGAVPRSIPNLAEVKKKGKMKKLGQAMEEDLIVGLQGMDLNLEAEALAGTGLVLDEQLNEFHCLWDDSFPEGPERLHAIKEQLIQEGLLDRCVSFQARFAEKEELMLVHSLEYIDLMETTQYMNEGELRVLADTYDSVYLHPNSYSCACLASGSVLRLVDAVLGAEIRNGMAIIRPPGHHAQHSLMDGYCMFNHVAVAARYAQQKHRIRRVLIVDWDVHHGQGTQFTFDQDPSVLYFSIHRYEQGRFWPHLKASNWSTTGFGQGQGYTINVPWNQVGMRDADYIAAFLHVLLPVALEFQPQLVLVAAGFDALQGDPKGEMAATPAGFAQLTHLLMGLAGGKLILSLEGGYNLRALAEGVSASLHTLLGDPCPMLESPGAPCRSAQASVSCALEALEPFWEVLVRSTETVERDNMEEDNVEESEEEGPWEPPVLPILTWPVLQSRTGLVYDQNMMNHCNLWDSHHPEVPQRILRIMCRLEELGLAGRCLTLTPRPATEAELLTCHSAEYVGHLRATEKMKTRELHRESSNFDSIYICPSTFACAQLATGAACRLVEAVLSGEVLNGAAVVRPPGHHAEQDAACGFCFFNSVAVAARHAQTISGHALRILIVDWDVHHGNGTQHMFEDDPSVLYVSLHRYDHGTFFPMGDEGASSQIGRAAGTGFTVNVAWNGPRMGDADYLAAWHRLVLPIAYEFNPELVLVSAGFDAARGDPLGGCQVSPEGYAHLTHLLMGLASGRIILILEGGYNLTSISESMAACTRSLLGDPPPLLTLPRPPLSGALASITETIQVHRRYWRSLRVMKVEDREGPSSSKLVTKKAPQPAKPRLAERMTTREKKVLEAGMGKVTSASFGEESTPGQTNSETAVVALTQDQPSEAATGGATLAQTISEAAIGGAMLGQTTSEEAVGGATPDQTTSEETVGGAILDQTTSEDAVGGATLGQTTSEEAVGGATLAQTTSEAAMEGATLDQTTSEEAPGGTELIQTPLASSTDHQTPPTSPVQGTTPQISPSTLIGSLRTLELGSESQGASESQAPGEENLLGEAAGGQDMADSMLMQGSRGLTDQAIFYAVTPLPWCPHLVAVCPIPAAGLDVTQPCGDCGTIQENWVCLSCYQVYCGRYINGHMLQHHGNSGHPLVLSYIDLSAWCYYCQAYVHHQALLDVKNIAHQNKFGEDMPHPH

HDAC2 = biological target: T4, HDAC2 (Homo sapiens, UniProt Q92769); assay: HDAC enzyme activity assay (fluorogenic substrate), HDAC2
T4 construct: NM_001527; Cat. #50002) is full-length with C-terminal his tag; His (C); purchased BPS Biosciences 50002; host or cells: baculovirus infected Sf9 cells

[1] = recombinant enzyme, read-out: HDAC1 inhibition (IC50)
[2] = recombinant enzyme, read-out: PDE5A1 inhibition (IC50)
[3] = recombinant enzyme, read-out: HDAC6 inhibition (IC50)
[4] = recombinant enzyme, read-out: HDAC2 inhibition (IC50)

T1 sequence (O76083 1-533 isoform O76083-2): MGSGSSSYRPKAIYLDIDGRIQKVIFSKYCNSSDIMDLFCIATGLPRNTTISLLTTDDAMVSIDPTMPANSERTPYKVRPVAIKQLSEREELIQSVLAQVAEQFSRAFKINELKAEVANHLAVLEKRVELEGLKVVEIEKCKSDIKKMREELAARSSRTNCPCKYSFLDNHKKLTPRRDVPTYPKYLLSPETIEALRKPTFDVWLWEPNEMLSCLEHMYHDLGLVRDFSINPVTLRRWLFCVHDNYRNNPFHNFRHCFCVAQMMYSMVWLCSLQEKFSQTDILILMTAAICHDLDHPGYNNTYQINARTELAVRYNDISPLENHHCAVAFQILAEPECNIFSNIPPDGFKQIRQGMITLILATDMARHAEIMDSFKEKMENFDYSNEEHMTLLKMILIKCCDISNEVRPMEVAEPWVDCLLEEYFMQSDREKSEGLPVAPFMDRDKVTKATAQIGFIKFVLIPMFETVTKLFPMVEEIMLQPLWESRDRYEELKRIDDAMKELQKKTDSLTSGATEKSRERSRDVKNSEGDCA
Chain of HDAC1 (Q13547 whole entry): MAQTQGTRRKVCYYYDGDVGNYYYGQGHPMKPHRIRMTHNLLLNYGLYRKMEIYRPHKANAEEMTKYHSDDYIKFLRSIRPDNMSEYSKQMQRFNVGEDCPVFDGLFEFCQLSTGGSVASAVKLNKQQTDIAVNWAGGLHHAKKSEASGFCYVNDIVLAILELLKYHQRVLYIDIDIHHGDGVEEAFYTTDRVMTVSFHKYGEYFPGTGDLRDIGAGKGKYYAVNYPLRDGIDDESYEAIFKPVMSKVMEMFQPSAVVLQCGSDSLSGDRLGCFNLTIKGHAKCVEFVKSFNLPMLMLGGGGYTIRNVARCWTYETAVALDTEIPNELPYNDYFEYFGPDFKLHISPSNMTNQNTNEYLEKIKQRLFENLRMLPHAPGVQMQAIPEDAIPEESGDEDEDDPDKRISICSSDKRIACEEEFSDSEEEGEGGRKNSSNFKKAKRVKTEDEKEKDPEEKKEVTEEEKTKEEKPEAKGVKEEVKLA
T4 sequence (Q92769 whole entry): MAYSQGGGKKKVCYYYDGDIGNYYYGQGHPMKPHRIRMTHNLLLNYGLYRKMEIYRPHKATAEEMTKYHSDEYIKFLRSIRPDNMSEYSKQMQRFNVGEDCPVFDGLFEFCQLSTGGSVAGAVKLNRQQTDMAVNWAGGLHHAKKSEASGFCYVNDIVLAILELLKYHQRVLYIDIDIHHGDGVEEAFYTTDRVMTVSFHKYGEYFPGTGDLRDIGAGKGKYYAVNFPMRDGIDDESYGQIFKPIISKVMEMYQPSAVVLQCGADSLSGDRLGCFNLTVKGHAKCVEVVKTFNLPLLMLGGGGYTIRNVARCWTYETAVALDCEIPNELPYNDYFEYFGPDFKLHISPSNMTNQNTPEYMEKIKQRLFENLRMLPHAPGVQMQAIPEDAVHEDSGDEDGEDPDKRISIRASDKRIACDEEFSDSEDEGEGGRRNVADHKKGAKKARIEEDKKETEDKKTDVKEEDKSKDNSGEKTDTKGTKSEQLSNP

| SMILES | IC50 (PDE9A isoform b) | IC50 (HDAC1; [1]) | IC50 (PDE5A; [2]) | IC50 (HDAC6; [3]) | IC50 (HDAC2; [4]) | IC50 (PDE5A; comparative example, read-out: PDE5A1 IC50) | IC50 (HDAC6; comparative examples, inactive, read-out: HDAC6 IC50) | IC50 (HDAC2; comparative examples, inactive, read-out: HDAC2 IC50) | IC50 (HDAC1; comparative examples, inactive, read-out: HDAC1 IC50) |
| --- | --- | --- | --- | --- | --- | --- | --- | --- | --- |
| CC(c1nc2c(cnn2C2CCOCC2)c(=O)[nH]1)N1CC(Oc2ccc(N3CCC(C(=O)NO)CC3)cc2)C1 (stereo not shown) [Example 3-05] | 10 to 1000 nM | > 10000 nM | – | – | – | – | – | – | – |
| CCCc1nn(C)c2c(=O)[nH]c(-c3cc(CC4CCN(c5ccc(C(=O)NO)cn5)CC4)ccc3OCC)nc12 [Example 1-39] | – | 1000 to 10000 nM | 10 to 1000 nM | 10 to 1000 nM | 1000 to 10000 nM | – | – | – | – |
| CCCc1nn(C)c2c(=O)[nH]c(-c3cc(Cc4ccc(/C=C/C(=O)NO)cc4)ccc3OCC)nc12 [Example 1-59] | – | 1000 to 10000 nM | 10 to 1000 nM | 1000 to 10000 nM | > 10000 nM | – | – | – | – |
| CCCc1nn(C)c2c(=O)[nH]c(-c3cc(CCC(=O)NO)ccc3OCC)nc12 [Example 1-31, 3-[4-ethoxy-3-(1-methyl-7-oxo-3-propyl-6H-pyrazolo[4,3-d]pyrimidin-5-yl)phenyl]propanehydroxamic acid] | – | 1000 to 10000 nM | 10 to 1000 nM | 1000 to 10000 nM | > 10000 nM | – | – | – | – |
| CCCc1nn(C)c2c(=O)[nH]c(-c3cc(Cc4ccc(C(=O)NO)cc4F)ccc3OCC)nc12 [Example 1-68] | – | 1000 to 10000 nM | 10 to 1000 nM | 10 to 1000 nM | > 10000 nM | – | – | – | – |
| CCCc1nn(C)c2c(=O)[nH]c(-c3cc(N4CCC(C(=O)NO)CC4)ccc3OCC)nc12 [Example 1-35, 1-[4-ethoxy-3-(1-methyl-7-oxo-3-propyl-6H-pyrazolo[4,3-d]pyrimidin-5-yl)phenyl]piperidine-4-carbohydroxamic acid] | – | 1000 to 10000 nM | 10 to 1000 nM | 1000 to 10000 nM | > 10000 nM | – | – | – | – |
| CCCc1nn(C)c2c(=O)[nH]c(-c3cc(C4CCC(CC(=O)NO)CC4)ccc3OCC)nc12 (stereo not shown) [Example 1-51] | – | 1000 to 10000 nM | 10 to 1000 nM | 1000 to 10000 nM | > 10000 nM | – | – | – | – |
| CCCc1nn(C)c2c(=O)[nH]c(-c3cc(CC4CCN(C(=O)NO)CC4)ccc3OCC)nc12 [Example 1-49, 4-[[4-ethoxy-3-(1-methyl-7-oxo-3-propyl-6H-pyrazolo[4,3-d]pyrimidin-5-yl)phenyl]methyl]piperidine-1-carbohydroxamic acid] | – | > 10000 nM | 10 to 1000 nM | 1000 to 10000 nM | > 10000 nM | – | – | – | – |
| CCCc1nn(C)c2c(=O)[nH]c(-c3cc(OCc4ccc(C(=O)NO)cc4)ccc3OCC)nc12 [Example 1-55] | – | 1000 to 10000 nM | 10 to 1000 nM | 10 to 1000 nM | > 10000 nM | – | – | – | – |
| COc1ccc(C(=O)Nc2c(Cl)cncc2Cl)cc1OC1CCCC1 [Piclamilast, reference compound] | > 10000 nM | – | 1000 to 10000 nM | – | – | – | – | – | – |
| CCCc1nn(C)c2c(=O)[nH]c(-c3cc(C4CCC(C(=O)NO)CC4)ccc3OCC)nc12 (stereo not shown) [Example 1-41, 4-[4-ethoxy-3-(1-methyl-7-oxo-3-propyl-6H-pyrazolo[4,3-d]pyrimidin-5-yl)phenyl]cyclohexanecarbohydroxamic acid] | – | > 10000 nM | 10 to 1000 nM | 1000 to 10000 nM | > 10000 nM | – | – | – | – |
| CCCc1nn(C)c2c(=O)[nH]c(-c3cc(CN4CCC(C(=O)NO)CC4)ccc3OCC)nc12 [Example 1-36, 1-[[4-ethoxy-3-(1-methyl-7-oxo-3-propyl-6H-pyrazolo[4,3-d]pyrimidin-5-yl)phenyl]methyl]piperidine-4-carbohydroxamic acid] | – | 1000 to 10000 nM | 10 to 1000 nM | 1000 to 10000 nM | > 10000 nM | – | – | – | – |
| CCCc1nc(C)c2c(=O)[nH]c(-c3cc(CC4CC(C(=O)N(C)OC)C4)ccc3OCC)nn12 (stereo not shown) [Comparative Example 2-02, 3-[[4-ethoxy-3-(5-methyl-4-oxo-7-propyl-3H-imidazo[5,1-f][1,2,4]triazin-2-yl)phenyl]methyl]-N-methoxy-N-methylcyclobutanecarboxamide, reference compound] | – | – | – | – | – | < 10 nM | > 20000 nM | > 20000 nM | > 20000 nM |
| CCCc1nn(C)c2c(=O)[nH]c(-c3cc(N4CCC5(CC5C(=O)NO)C4)ccc3OCC)nc12 (stereo not shown) [Example 1-67] | – | > 10000 nM | 10 to 1000 nM | > 10000 nM | > 10000 nM | – | – | – | – |
| CCCc1nn(C)c2c(=O)[nH]c(-c3cc(C4=CCC(C(=O)NO)CC4)ccc3OCC)nc12 (stereo not shown) [Example 1-38, 4-[4-ethoxy-3-(1-methyl-7-oxo-3-propyl-6H-pyrazolo[4,3-d]pyrimidin-5-yl)phenyl]cyclohex-3-ene-1-carbohydroxamic acid] | – | 1000 to 10000 nM | 10 to 1000 nM | 10 to 1000 nM | > 10000 nM | – | – | – | – |
| CCCc1nn(C)c2c(=O)[nH]c(-c3cc(C4CC(C(=O)NO)C4)ccc3OCC)nc12 (stereo not shown) [Example 1-85, 3-[4-ethoxy-3-(1-methyl-7-oxo-3-propyl-6H-pyrazolo[4,3-d]pyrimidin-5-yl)phenyl]cyclobutanecarbohydroxamic acid] | – | 1000 to 10000 nM | 10 to 1000 nM | 10 to 1000 nM | 1000 to 10000 nM | – | – | – | – |

Other lines, results leading:

| IC50 (PDE9A isoform b) | IC50 (HDAC1; [1]) | IC50 (PDE5A; [2]) | IC50 (HDAC6; [3]) | IC50 (HDAC2; [4]) | IC50 (PDE5A; comparative example, read-out: PDE5A1 IC50) | IC50 (HDAC6; comparative examples, inactive, read-out: HDAC6 IC50) | IC50 (HDAC2; comparative examples, inactive, read-out: HDAC2 IC50) | IC50 (HDAC1; comparative examples, inactive, read-out: HDAC1 IC50) | SMILES |
| --- | --- | --- | --- | --- | --- | --- | --- | --- | --- |
| 10 to 1000 nM | 1000 to 10000 nM | – | – | – | – | – | – | – | C[C@@H]1CN(Cc2cnc(N3CCC(C(=O)NO)CC3)nc2)C[C@H]1c1nc2c(cnn2C2CCOCC2)c(=O)[nH]1 (racemic) [Example 3-08] |
| < 10 nM | 10 to 1000 nM | – | – | – | – | – | – | – | CC(c1nc2c(cnn2C2CCOCC2)c(=O)[nH]1)N1CC(Oc2ccc(/C=C/C(=O)NO)cc2)C1 (stereo not shown) [Example 3-06] |
| – | 1000 to 10000 nM | 10 to 1000 nM | 1000 to 10000 nM | > 10000 nM | – | – | – | – | CCCc1nn(C)c2c(=O)[nH]c(-c3cc(CC4CC4C(=O)NO)ccc3OCC)nc12 (stereo not shown) [Example 1-86, 2-[[4-ethoxy-3-(1-methyl-7-oxo-3-propyl-6H-pyrazolo[4,3-d]pyrimidin-5-yl)phenyl]methyl]cyclopropanecarbohydroxamic acid] |
| – | 10 to 1000 nM | 10 to 1000 nM | 10 to 1000 nM | 10 to 1000 nM | – | – | – | – | CCCc1nn(C)c2c(=O)[nH]c(-c3cc(NCC4CCN(c5ncc(C(=O)NO)cn5)CC4)ccc3OCC)nc12 [Example 1-23] |
| – | 10 to 1000 nM | < 10 nM | 10 to 1000 nM | > 10000 nM | – | – | – | – | CCCc1nn(C)c2c(=O)[nH]c(-c3cc(Nc4ccc(C(=O)NO)cc4)ccc3OCC)nc12 [Example 1-21, 4-[4-ethoxy-3-(1-methyl-7-oxo-3-propyl-6H-pyrazolo[4,3-d]pyrimidin-5-yl)anilino]benzenecarbohydroxamic acid] |
| – | 10 to 1000 nM | 10 to 1000 nM | 1000 to 10000 nM | 1000 to 10000 nM | – | – | – | – | CCCc1nn(C)c2c(=O)[nH]c(-c3cc(N4CCC5(CCN(c6ncc(C(=O)NO)cn6)CC5)C4)ccc3OCC)nc12 [Example 1-69, 2-[2-[4-ethoxy-3-(1-methyl-7-oxo-3-propyl-6H-pyrazolo[4,3-d]pyrimidin-5-yl)phenyl]-2,8-diazaspiro[4.5]decan-8-yl]pyrimidine-5-carbohydroxamic acid] |
| – | 10 to 1000 nM | 10 to 1000 nM | 10 to 1000 nM | 1000 to 10000 nM | – | – | – | – | CCCc1nn(C)c2c(=O)[nH]c(-c3cc(Oc4ccc(C(=O)NO)cc4)ccc3OCC)nc12 [Example 1-37, 4-[4-ethoxy-3-(1-methyl-7-oxo-3-propyl-6H-pyrazolo[4,3-d]pyrimidin-5-yl)phenoxy]benzenecarbohydroxamic acid] |
| – | 10 to 1000 nM | 10 to 1000 nM | 10 to 1000 nM | 10 to 1000 nM | – | – | – | – | CCCc1nn(C)c2c(=O)[nH]c(-c3cc(CC4CC(C(=O)NO)C4)ccc3OCC)nc12 (stereo not shown) [Example 1-62, 3-[[4-ethoxy-3-(1-methyl-7-oxo-3-propyl-6H-pyrazolo[4,3-d]pyrimidin-5 yl)phenyl]methyl]cyclobutanecarbohydroxamic acid] |
